Active and inactive are the calls of the source. The calls are words filed in the database; no cut-off is given here.
How the values were obtained:
NCI-H157 [1] = assay: Cytotoxicity against human NCI-H157 cells at 100 uM after 48 hrs by sulforhodamine B assay; type: functional
NCI-H157 [2] = assay: Cytotoxicity against human NCI-H157 cells at 10 uM after 48 hrs by sulforhodamine B assay; type: functional
NCI-H157 [3] = assay: Cytotoxicity against human NCI-H157 cells at 1 uM after 48 hrs by sulforhodamine B assay; type: functional
NCI-H157 [4] = assay: Cytotoxicity against human NCI-H157 cells at 0.1 uM after 48 hrs by sulforhodamine B assay; type: functional
Leishmania major [5] = assay: Antileishmanial activity against Leishmania major promastigotes at 100 uM after 72 hrs by MTT assay relative to control; type: functional
Leishmania major [6] = assay: Antileishmanial activity against Leishmania major promastigotes at 10 uM after 72 hrs by MTT assay relative to control; type: functional
Leishmania major [7] = assay: Antileishmanial activity against Leishmania major promastigotes at 1 uM after 72 hrs by MTT assay relative to control; type: functional
Leishmania major [8] = assay: Antileishmanial activity against Leishmania major promastigotes at 0.1 uM after 72 hrs by MTT assay relative to control; type: functional
Klebsiella pneumoniae [9] = assay: Antibacterial activity against Klebsiella pneumoniae assessed as zone of inhibition after 24 to 48 hrs by well diffusion method; type: functional
Streptococcus pyogenes = assay: Antibacterial activity against Streptococcus pyogenes assessed as zone of inhibition after 24 to 48 hrs by well diffusion method; type: functional
[10] = test system: Staphylococcus epidermidis; assay: Antibacterial activity against Staphylococcus epidermidis assessed as zone of inhibition after 24 to 48 hrs by well diffusion method; type: functional
Staphylococcus aureus [11] = assay: Antibacterial activity against Staphylococcus aureus assessed as zone of inhibition after 24 to 48 hrs by well diffusion method; type: functional
Serratia marcescens [12] = assay: Antibacterial activity against Serratia marcescens assessed as zone of inhibition after 24 to 48 hrs by well diffusion method; type: functional
Pseudomonas aeruginosa [13] = assay: Antibacterial activity against Pseudomonas aeruginosa assessed as zone of inhibition after 24 to 48 hrs by well diffusion method; type: functional
Escherichia coli [14] = assay: Antibacterial activity against Escherichia coli assessed as zone of inhibition after 24 to 48 hrs by well diffusion method; type: functional
Klebsiella pneumoniae [15] = assay: Antibacterial activity against Klebsiella pneumoniae assessed as zone of inhibition by measuring activity index after 24 to 48 hrs by well diffusion method relative to tetracycline; type: functional, organism-based
Klebsiella pneumoniae [16] = assay: Antibacterial activity against Klebsiella pneumoniae assessed as zone of inhibition by measuring activity index after 24 to 48 hrs by well diffusion method relative to ampicillin; type: functional, organism-based
Klebsiella pneumoniae [17] = assay: Antibacterial activity against Klebsiella pneumoniae assessed as zone of inhibition by measuring activity index after 24 to 48 hrs by well diffusion method relative to amoxicillin; type: functional, organism-based
[18] = test system: Staphylococcus epidermidis; assay: Antibacterial activity against Staphylococcus epidermidis assessed as zone of inhibition by measuring activity index after 24 to 48 hrs by well diffusion method relative to tetracycline; type: functional, organism-based
[19] = test system: Staphylococcus epidermidis; assay: Antibacterial activity against Staphylococcus epidermidis assessed as zone of inhibition by measuring activity index after 24 to 48 hrs by well diffusion method relative to amoxicillin; type: functional, organism-based
Serratia marcescens [20] = assay: Antibacterial activity against Serratia marcescens assessed as zone of inhibition by measuring activity index after 24 to 48 hrs by well diffusion method relative to penicillin G; type: functional
Serratia marcescens [21] = assay: Antibacterial activity against Serratia marcescens assessed as zone of inhibition by measuring activity index after 24 to 48 hrs by well diffusion method relative to ampicillin; type: functional
Serratia marcescens [22] = assay: Antibacterial activity against Serratia marcescens assessed as zone of inhibition by measuring activity index after 24 to 48 hrs by well diffusion method relative to amoxicillin; type: functional
Pseudomonas aeruginosa [23] = assay: Antibacterial activity against Pseudomonas aeruginosa assessed as zone of inhibition by measuring activity index after 24 to 48 hrs by well diffusion method relative to tetracycline; type: functional, organism-based
Pseudomonas aeruginosa [24] = assay: Antibacterial activity against Pseudomonas aeruginosa assessed as zone of inhibition by measuring activity index after 24 to 48 hrs by well diffusion method relative to penicillin G; type: functional, organism-based
Pseudomonas aeruginosa [25] = assay: Antibacterial activity against Pseudomonas aeruginosa assessed as zone of inhibition by measuring activity index after 24 to 48 hrs by well diffusion method relative to amoxicillin; type: functional, organism-based
Escherichia coli [26] = assay: Antibacterial activity against Escherichia coli assessed as zone of inhibition by measuring activity index after 24 to 48 hrs by well diffusion method relative to tetracycline; type: functional
DNA [27] = assay: Binding affinity to single-stranded DNA (unknown origin) assessed as DNA intercalation by measuring increase in relative viscosity of DNA-compound complex by viscometry; type: nucleic-acid assay
DNA [28] = assay: Binding affinity to single-stranded DNA (unknown origin) after 10 mins by UV-visible spectrometric method; type: nucleic-acid assay
NCI-H157 [29] = assay: Cytotoxicity against human NCI-H157 cells after 48 hrs by sulforhodamine B assay; type: functional, cell-based
DNA [30] = assay: Binding affinity to single-stranded DNA (unknown origin) assessed as red shift up to 72 uM after 10 mins by UV-visible spectrometric method; type: nucleic-acid assay
Klebsiella pneumoniae [31] = assay: Antibacterial activity against Klebsiella pneumoniae assessed as zone of inhibition by measuring activity index after 24 to 48 hrs by well diffusion method relative to penicillin G; type: functional, organism-based
[32] = test system: Staphylococcus epidermidis; assay: Antibacterial activity against Staphylococcus epidermidis assessed as zone of inhibition by measuring activity index after 24 to 48 hrs by well diffusion method relative to penicillin G; type: functional, organism-based
[33] = test system: Staphylococcus epidermidis; assay: Antibacterial activity against Staphylococcus epidermidis assessed as zone of inhibition by measuring activity index after 24 to 48 hrs by well diffusion method relative to ampicillin; type: functional, organism-based
Staphylococcus aureus [34] = assay: Antibacterial activity against Staphylococcus aureus assessed as zone of inhibition by measuring activity index after 24 to 48 hrs by well diffusion method relative to tetracycline; type: functional, organism-based
Staphylococcus aureus [35] = assay: Antibacterial activity against Staphylococcus aureus assessed as zone of inhibition by measuring activity index after 24 to 48 hrs by well diffusion method relative to penicillin G; type: functional, organism-based
Staphylococcus aureus [36] = assay: Antibacterial activity against Staphylococcus aureus assessed as zone of inhibition by measuring activity index after 24 to 48 hrs by well diffusion method relative to ampicillin; type: functional, organism-based
Staphylococcus aureus [37] = assay: Antibacterial activity against Staphylococcus aureus assessed as zone of inhibition by measuring activity index after 24 to 48 hrs by well diffusion method relative to amoxicillin; type: functional, organism-based
Serratia marcescens [38] = assay: Antibacterial activity against Serratia marcescens assessed as zone of inhibition by measuring activity index after 24 to 48 hrs by well diffusion method relative to tetracycline; type: functional, organism-based
Escherichia coli [39] = assay: Antibacterial activity against Escherichia coli assessed as zone of inhibition by measuring activity index after 24 to 48 hrs by well diffusion method relative to penicillin G; type: functional, organism-based
Escherichia coli [40] = assay: Antibacterial activity against Escherichia coli assessed as zone of inhibition by measuring activity index after 24 to 48 hrs by well diffusion method relative to ampicillin; type: functional, organism-based
Escherichia coli [41] = assay: Antibacterial activity against Escherichia coli assessed as zone of inhibition by measuring activity index after 24 to 48 hrs by well diffusion method relative to amoxicillin; type: functional, organism-based
Pseudomonas aeruginosa [42] = assay: Antibacterial activity against Pseudomonas aeruginosa assessed as zone of inhibition by measuring activity index after 24 to 48 hrs by well diffusion method relative to ampicillin; type: functional, organism-based

Row | Substance | Activity (NCI-H157 [1]) [%] | Activity (NCI-H157 [2]) [%] | Activity (NCI-H157 [3]) [%] | Activity (NCI-H157 [4]) [%] | Activity (Leishmania major [5]) [%] | Activity (Leishmania major [6]) [%] | Activity (Leishmania major [7]) [%] | Activity (Leishmania major [8]) [%] | inhibition zone (IZ) (Klebsiella pneumoniae [9]) | inhibition zone (IZ) (Streptococcus pyogenes) [mm] | inhibition zone (IZ) [10] | inhibition zone (IZ) (Staphylococcus aureus [11]) | inhibition zone (IZ) (Serratia marcescens [12]) | inhibition zone (IZ) (Pseudomonas aeruginosa [13]) | inhibition zone (IZ) (Escherichia coli [14]) | Activity index (Klebsiella pneumoniae [15]) | Activity index (Klebsiella pneumoniae [16]) | Activity index (Klebsiella pneumoniae [17]) | Activity index [18] | Activity (NCI-H157 [29]) | further results
1 | Trimethylstannyl 2-(4-methoxy-2-nitrophenylcarbamoyl)benzoate | 66.4 | 62.3 | 58.2 | 54.4 | 67.8 | 66.5 | 62.9 | 58.8 | 20.2 mm | 7.33 | 10.3 mm | 4.66 mm | 13.3 mm | 15.7 mm | 16.7 mm | 1.44 | 3.44 | 3.44 | 1.03 | Dose-dependent effect | Activity index [19]: 5.17; Activity index (Serratia marcescens [20]): 1.67; Activity index (Serratia marcescens [21]): 1.67; Activity index (Serratia marcescens [22]): 2.22; Activity index (Pseudomonas aeruginosa [23]): 2.61; Activity index (Pseudomonas aeruginosa [24]): 2.61; Activity index (Pseudomonas aeruginosa [25]): 2.61; Activity index (Escherichia coli [26]): 8.33; Activity (DNA [27]): Active; K (DNA [28]): 4.2 ×10³ /M; Activity (DNA [30]): < 3 nm
2 | Diphenylstannanediyl bis 2-(4-methoxy-2-nitrophenylcarbamoyl)benzoate | 73.9 | 67.1 | 59.6 | 55.5 | 71.2 | 65.5 | 60.4 | 56.6 | inactive | 7.33 | inactive | inactive | inactive | 10 mm | inactive | – | – | – | – | Dose-dependent effect | Activity_index (Klebsiella pneumoniae [31]): inactive; Activity_index [32]: inactive; Activity_index [33]: inactive; Activity_index (Staphylococcus aureus [34]): inactive; Activity_index (Staphylococcus aureus [35]): inactive; Activity_index (Staphylococcus aureus [36]): inactive; Activity_index (Staphylococcus aureus [37]): inactive; Activity_index (Serratia marcescens [38]): inactive; Activity index (Pseudomonas aeruginosa [23]): 1.67; Activity index (Pseudomonas aeruginosa [24]): 1.67; Activity index (Pseudomonas aeruginosa [25]): 1.67; Activity_index (Escherichia coli [39]): inactive; Activity_index (Escherichia coli [40]): inactive; Activity_index (Escherichia coli [41]): inactive
3 | Triethylstannyl 2-(4-methoxy-2-nitrophenylcarbamoyl)benzoate | 62.4 | 57.4 | 43.7 | 39.8 | 56.4 | 53.2 | 49.4 | 45.3 | 27.7 mm | 15.7 | 11 mm | 19.3 mm | 15.3 mm | inactive | inactive | 1.98 | 4.61 | 4.61 | 1.1 | Dose-dependent effect | Activity index [19]: 5.5; Activity index (Serratia marcescens [20]): 1.92; Activity index (Serratia marcescens [21]): 1.92; Activity index (Serratia marcescens [22]): 2.55; Activity_index (Pseudomonas aeruginosa [42]): inactive; Activity_index (Escherichia coli [39]): inactive; Activity_index (Escherichia coli [40]): inactive; Activity_index (Escherichia coli [41]): inactive; Activity (DNA [27]): Active; K (DNA [28]): 9.3 ×10³ /M; Activity (DNA [30]): < 3 nm
